Measured values: patent publication US20240226100A1, “CONTROL OF PROTEIN EXPRESSION WITH TMP-PROTAC COMPOUNDS” (THE TRUSTEES OF THE UNIVERSITY OF PENNSYLVANIA, priority 2021, published 2024)

Key:
[1] = tested on: eDHFR-Luc; test: Degradation of luciferase in Jurkat-DL cells, luminescence; type: cell-based, Escherichia coli; conditions: 4, 8 and 18 h, varying doses
[2] = tested on: eDHFR-Luc; test: Degradation of luciferase in HEK293T-DL cells, luminescence; type: cell-based, Escherichia coli; conditions: 12 and 24 h, varying doses
[3] = tested on: FAP CAR-eDHFR direct fusion (DF); test: Dose response of surface CAR expression in primary human FAP-eDHFR DF CAR T cells, flow cytometry; type: cell-based; conditions: for degradation / downregulation of CAR molecules from the surface of CAR T cells: primary human FAP-eDHFR CAR T cells
Description: Generated CAR T cells were pelleted, resuspended in 2% BSA in PBS (Invitrogen), and incubated with Alexa Fluor® 647 AffiniPure F(ab′2) fragment goat anti-mouse IgG (Jackson ImmunoResearch Laboratories) for 30 minutes at room temperature. Stained cells were washed 3 times with PBS, and were analyzed on a flow cytometer (LSR II, BD Biosciences) for CAR and/or BFP expression. All flow data were analyzed using FlowJo software (FlowJo).
Following incubation, the cells were washed and stained with Alexa Fluor® 647 AffiniPure F(ab′2) fragment goat anti-mouse IgG (Jackson ImmunoResearch Laboratories) as described under “Flow Cytometry”, and their surface expression was analyzed on a flow cytometer (LSR II, BD Biosciences).
(§1) Data plotted as raw CAR stain fluorescence is shown in the left panel and percent of maximum CAR expression is shown in the right panel.
Values are reported as percent of maximum CAR expression (i.e. relative to CAR T cells that were treated with vehicle control). Each color represents a different donor (n=3).

[4] = tested on: TNFα; test: Cytokine release assay, TNFα ELISA of killing assay supernatant; type: cell-based, human
Description: The concentration of TNF-α and IFN-g in the supernatants following killing assay was determined by ELISA.

[5] = tested on: FAP CAR-eDHFR fusion protein; test: CAR downregulation in Jurkat cells expressing FAP CAR-eDHFR fusion protein, flow cytometry; type: cell-based, Escherichia coli; conditions: serial time points
Description: as §1

[6] = tested on: eDHFR-Lck fusion protein; test: Dose response in HEK293T eDHFR-Lck cells, Western blot; type: cell-based, Escherichia coli; conditions: 24 h
[7] = tested on: eDHFR-Luc; test: Time course in OVCAR8 eDHFR-Luc cells, luminescence; type: cell-based, Escherichia coli; conditions: between 390 and 24 nM
Description: OVCAR8^eDHR-luc+ cells were plated in black wall/clear bottom (Falcon) 96-well plates (4×10^4 cells/well) in 200 uL of complete media and incubated with serially diluted compound 7c at −48, −24, −12, −8 and −4 h and analyzed together at 0 h (t=0). Luciferin is prepared to 1× with complete media and 50 uL of Luciferin solution is added to the cells which are then analyzed by plate reader (ThermoFisher Varioskan Plusplate).
After the addition of Luciferin/complete media solution, luminescence was measured at the same time (t=0) by plate reader. 90% degradation of eDHFR-luc measured in 12 h between 390 and 24 nM, and 95% degradation of eDHFR-luc measured in 24 h between 390 and 24 nM.

[8] = tested on: FAP CAR-eDHFR direct fusion (DF); test: Washout kinetic assay of CAR expression in primary human FAP-eDHFR DF CAR T cells; type: cell-based; conditions: 100 nM, washout after 24 h
Description: Following a 24 hour incubation with TMP-POM 7c, the remaining cells were washed multiple times with […] (Corning) to remove the drug, returned to culture in a new 12-well plate, and then again sampled serially at different time points following the wash (3, 6, 24, 48, and 72 hours post-washout). All cells were stained for CAR and fixed in 4% following sampling, and were analyzed on a flow cytometer (LSR II, BD Biosciences).
Following 24-hour incubation with TMP-POM 7c, the cells were washed multiple times to remove the drug (red arrow), seeded on a new plate, and then again sampled serially following the drug washout. All cells were stained for CAR and fixed in 4% following sampling.

[9] = tested on: FAP CAR-eDHFR direct fusion (DF); test: Inhibitor test in primary human FAP-eDHFR DF CAR T cells, flow cytometry; type: cell-based; conditions: primary human FAP-eDHFR DF CAR T cells
Description: Following pre-incubation, either 100 nM 7c or vehicle control DMSO (Sigma) was added to the wells, and cells were incubated with the drug for another 4 hours. Following incubation, the cells were washed and their surface CAR expression was assessed on a flow cytometer (BD Biosciences).
Following pre-incubation, the cells were incubated with 100 nM 7c for 4 hours and their CAR expression was assessed on a flow cytometer.

For `COc1cc(Cc2cnc(N)nc2N)cc(OC)c1OCCCC(=O)NCCOCCOCCNc1cccc2c1C(=O)N(C1CCC(=O)NC1=O)C2=O` (centres unmarked) [Compound 7c, 4-(4-((2,4-diaminopyrimidin-5-yl)methyl)-2,6-dimethoxyphenoxy)-N-(2-(2-(2-((2-(2,6-dioxopiperidin-3-yl)-1,3-dioxoisoindolin-4-yl)amino)ethoxy)ethoxy)ethyl)butanamide], the degradation of luciferase [1] was “degraded”, the degradation of luciferase [2] was “degraded” and the “CAR expression remaining, percent of maximum CAR expression” value ([3]; as early as 4 hours post-incubation, relative to vehicle control) was 20 % of maximum CAR expression. The “degradation / downregulation of CAR molecules from the surface of CAR T cells” value [3] was “leads to degradation of CAR molecules from the surface of CAR T cells”, the “degradation / downregulation of CAR molecules from the surface of CAR T cells” value ([3]; listed as TMP-POM 7c) was “effectively downregulates CAR in a dose-dependent and reversible manner” and the “TNFα secretion across concentrations” value ([4]; different concentrations, 10:1 E:T) was “inhibition of CAR T cell signaling”. For the same molecule, the “T cell TNF-α release” value ([4]; supernatant of killing assay, 100 nM compound) was “inhibits”, the “degradation of CAR molecules from the surface of Jurkat cells” value [5] was “leads to degradation of CAR molecules from the surface of Jurkat cells” and the “concentration of optimal degradation of eDHFR-Lck fusion protein” value [6] was 97 nM. The “degradation of eDHFR-luc” value ([7]; 12 h) was 90%, the “degradation of eDHFR-luc” value ([7]; 24 h) was 95% and the “time following washout for CAR expression to return to baseline” value [8] was about 72 h. The “time following washout for CAR expression to start recovering” value [8] was “around 24 hours” and the “mechanism of CAR downregulation” value [9] was “proteosome-mediated degradation process”.
